Results reported in US4493843A, “Indole and indoline carboxylic acid compounds and method of use” (May & Baker Limited, priority 1980, dated 1985).
Like-named read-outs stand apart in the source and are kept apart here.

Legend:
[1] = system: serum cholesterol and serum triglycerides; test: Hypolipidaemic activity in rats (compound in diet, last 7 of 10 days); assay type: in vivo, Male Wistar rats; conditions: Rattus norvegicus, po, 168 h, 7 days; for change in vivo at 0.2 % strength: 0.2 % w/w dose in diet; for change in vivo at 0.03 % strength: 0.03 % w/w dose in diet; for change in vivo at 0.1 % strength: 0.1 % w/w dose in diet
How it was run: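 Male Wistar rats (120–150 g, groups of eight) on powdered diet for 10 days, with test compound mixed into the diet (oral) for the last 7 days. On day 10, cardiac blood was taken and serum cholesterol and triglycerides measured by autoanalyser. Percentage reductions were calculated against simultaneous untreated-diet controls for each compound concentration.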

serum glucose = test: Hypoglycaemic activity in diabetic mice; assay type: in vivo, Diabetic mice (strain C 57, black, MRI derived Obese/Obese); conditions: 200 mg/kg body weight per day orally for 3 days; 3 hours after last dose
Procedure: Hypoglycaemic Activity in Diabetic Mice
Diabetic mice (strain C 57, black, MRI derived Obese/Obese) of either sex each weighting between 45 and 70 g were given the test compound orally at a dose of 200 mg/kg body weight per day for 3 days. Three hours after the last dose the animals were weighed, anaesthetised with carbon dioxide and bled by cardiac puncture.
The serum glucose levels were assessed by the glucose-oxidase method of God-Perid.
Control groups (given doses of unmedicated tragacanth mucilage) were included with each test.
The percentage reduction in the concentration of serum glucose was calculated by comparison with the simultaneous controls, for each of the test compounds used.

[2] = system: Smooth muscle cells from explants of pig thoracic aorta; test: Aortic smooth muscle cell proliferation inhibiting activity; assay type: cell-based; conditions: Sus scrofa, 168 h, 5 μg/ml medium; six or seven day incubation; each value mean of four dishes
Procedure: Aortic smooth muscle cell proliferation inhibiting activity
Smooth muscle cells were grown in culture from explants of pig thoracic aorta, using Dulbecco's Modified Eagles (DME) Medium containing 20% foetal calf serum (FCS) and antibiotics. The cells were incubated at 37° C. in an atmosphere of 95% air and 5% carbon dioxide. At confluency the cells were routinely subcultured by trypsinising and replating at approximately one third of their confluent density in DME Medium containing 10% FCS and antibiotics.
The smooth muscle cells were plated out at densities of 100,000-200,000 cells per 35×10 mm Falcon dish in 2 ml DME Medium containing 10% FCS and antibiotics. After 24 hours, when the cells had attached to the dishes, the medium was replaced with 2 ml DME Medium containing 1% FCS and antibiotics. The cultures were incubated for a further three days to allow the cells to become quiescent (i.e. no longer undergoing cell division). The medium was then replaced by 2 ml control or test medium. The test medium consisted of DME Medium (containing 10% FCS and antibiotics) and the compound to be tested at a concentration of 5 μg/ml medium. The compounds were pre-dissolved in acetone such that the final concentration of acetone in the medium was 0.2% (v/v). The control medium consisted of DME Medium (containing 10% FCS and antibiotics) and acetone at 0.2% (v/v) concentration. After three days incubation in test or control medium, the medium was replaced with fresh test or control medium and the cells incubated for a further three or four days. At the end of the six or seven day incubation period cell numbers were determined by trypsinising the cells and counting the cell suspension in a Coulter counter.
All results in Table II hereafter represent the mean value for four dishes of cells. Percentage inhibition of proliferation was calculated using the following formula: [formula] where S=Mean cell number per dish at start of experiment (upon addition of control or test medium).
T=Mean cell number per dish in test cultures at completion of experiment.
C=Mean cell number per dish in control cultures at completion of experiment.

[3] = read-out: % change in serum cholesterol compared with control
[4] = read-out: % change in serum triglycerides compared with control

Compound	change in vivo at 0.2 % strength [1, 3] [%]	change in vivo at 0.2 % strength [1, 4] [%]	inhibition at 5 µg/mL [2] [%]	also measured
CCCCCCCCCCCC1CNc2cc(C(=O)O)ccc21 (racemic) [Compound BXX, (RS)-3-(n-undecyl)indoline-6-carboxylic acid]	-10	-39		% change in serum glucose compared with control (serum glucose): -9%
CCCCCCCCCCCc1[nH]c2ccc(C(=O)O)cc2c1C [Compound CQQ, 2-(n-undecyl)-3-methylindole-5-carboxylic acid]				% change in serum glucose compared with control (serum glucose): -40%
CCCCCCCc1cc2cc(C(=O)OC)ccc2[nH]1 [Compound ASS, methyl 2-(n-heptyl)indole-5-carboxylate]	-2	-20	36	
CCCCCCCCCCCCCCCc1cc2cc(C(=O)O)ccc2[nH]1 [Compound G, 2-(n-pentadecyl)indole-5-carboxylic acid]			51	change in vivo at 0.03 % strength [1, 3]: -7%; change in vivo at 0.03 % strength [1, 4]: -41%
CCCCCCCc1cc2ccc(C(=O)OCC)cc2[nH]1 [Compound AJJ, ethyl 2-(n-heptyl)indole-6-carboxylate]	-8	6	45	
CCCCCCCCCCCCCCCCCCc1cc2cc(C(=O)O)ccc2[nH]1 [Compound T, 2-(n-octadecyl)indole-5-carboxylic acid]	-43	-67	30	change in vivo at 0.1 % strength [1, 3]: -45%; change in vivo at 0.1 % strength [1, 4]: -78%
CCCCCCCCCCCCCCCCc1cc2ccc(C(=O)O)cc2[nH]1 [Compound TT, 2-(n-hexadecyl)indole-6-carboxylic acid]	-8	-6	61	
CCCCCCCCCCCCCCc1cc2cc(C(=O)O)ccc2[nH]1 [Compound NN, 2-(n-tetradecyl)indole-5-carboxylic acid]	-39	-73	76	
CCCCCCCCCCCCCCC1Cc2ccc(C(=O)O)cc2N1 (racemic) [Compound AGG, (RS)-2-(n-tetradecyl)indoline-6-carboxylic acid]	-8	-23		
CCCCCCCCCCCCCCCCCCCc1cc2cc(C(=O)O)ccc2[nH]1 [Compound PP, 2-(n-nonadecyl)indole-5-carboxylic acid]	-13	-41		
CCCCCCCCCCCCCCCCCc1cc2cc(C(=O)O)ccc2[nH]1 [Compound E, 2-(n-heptadecyl)indole-5-carboxylic acid]	-54	-65		change in vivo at 0.1 % strength [1, 3]: -42%; change in vivo at 0.1 % strength [1, 4]: -55%
CCCCCCCCCCCCCCCCCCCCc1cc2ccc(C(=O)O)cc2[nH]1 [Compound UU, 2-(n-eicosyl)indole-6-carboxylic acid]	-15	-29		
CCCCCCCCCCCCCCCc1cc2ccc(C(=O)OCCCC)cc2[nH]1 [Compound APP, n-butyl 2-(n-pentadecyl)indole-6-carboxylate]	-2	-20		
